Paper PMC4381587, “A novel PI3K inhibitor PIK-C98 displays potent preclinical activity against multiple myeloma” (Oncotarget, 2014)

Key:
[1] = Body weight and hematology analysis in xenograft mice; format: in vivo
Procedure: Totally 50 female […] mice from Shanghai Slac Laboratory Animal Co. Ltd were used for the xenograft models with human MM cell lines OPM2 and JJN3, respectively. When tumors were palpable, the OPM2-xenograft mice were randomly divided into two groups. One group as a control was received the vehicle, and another group was orally administrated C98 (80 mg/kg) once a day for continuous 16 days. The JJN3 xenografted mice were randomly divided into three groups which were orally administrated vehicle or C98 (40 or 80 mg/kg), respectively. Body weight and tumor volumes were measured every other day as described previously. At the end of this experiment, tumors were collected for further studies. The concentrations of C98 in tumor tissues were also determined by LC-MS/MS as described above. All experiments involved in mice were reviewed and approved by the Review Board of Animal Care and Use of Soochow University.
At the end of the experiment of the in vivo studies, whole blood samples were collected from the eyes and were immediately subject to complete blood analysis as described previously. […]
www.impactjournals.com/oncotarget/ Oncotarget, Supplementary Materials 2014 […]
OPM2 (A) and JJN3 (B) were injected (s.c.) […]
into nude mice. When tumors were palpable, mice were orally administrated C98 at dosage as indicated for continued 16 days. Mice bodyweight was monitored every other day. […]

[2] = system: KMS11, LP1, OCI-My5, OPM2, JJN3, and RPMI-8226; assay: Immunoblotting of PARP and caspase-3 cleavage in MM cell lines; format: cell-based; conditions: all cell lines examined, 20 μM, 24 hr
Procedure: To answer whether C98 could induce apoptosis in other MM cells, 5 more MM cells were subject to the study. […] Cell apoptosis induced by C98 was further confirmed by the increased fraction of positive cells stained with Annexin V (Figure 5). To show whether activated PI3K signals can rescue C98 effects on MM cells, both OPM2 and RPMI-8226 cells were treated with IGF-1 alone or together with C98 for 48 hr followed by MTT assay.
Figure 4 C98 activates apoptotic signaling in MM cells (A) JJN3 cells were treated with C98 (0, 2.5, 5, 10, 20 μM) for 24 hr or 10 μM for 0, 3, 6, or 9 hr, followed by immunoblotting for the expression of p-AKT, t-AKT, pro-caspase-3 (Pro-Casp3), and cleaved caspase-3 (Cle-Casp3). (B) KMS11, LP1, OCI-My5, OPM2, JJN3, and RPMI-8226 were treated with C98 (20 μM) for 24 hr, followed by immunoblotting for the expression of PARP, Pro-Casp3, and Cle-Casp3. GAPDH was used as a loading control.
(§1) The immunoblotting assays were performed as described previously. IRDye 680 goat anti-mouse and IRDye 800CW goat anti-rabbit antibodies were from Odyssey (San Ramon, CA, USA).

p38 = assay: Immunoblotting of p38 phosphorylation in OPM2 and JJN3 cells; format: cell-based, human; conditions: OPM2 and JJN3, 24 hr
Procedure: (B) LP1 and JJN3 cells were starved overnight, then treated with C98 or S14161 for 2 hr, followed by IGF-1 (100 ng/mL) for 15 min. Cells were then prepared for the analysis of the expression of p-AKT, t-AKT, p-IGF-1R, and IGF-1R by immunoblotting. (C) OPM2 and JJN3 cells were treated with increasing concentrations of C98 for 24 hr before being applied to immunoblotting against p-ERK, t-ERK, p-P38, t-P38, p-Src, t-Src, p-STAT3, or t-STAT3. GAPDH and β-actin were used as loading controls.
To further clarify the effects of C98 on other signaling pathways associated with PI3K signaling, we evaluated ERK and p38, both of which mediate extracellular signaling similar to PI3K. […] We also checked the phosphorylation status of STAT3, a signal transducer and activator of transcription. […] Therefore, C98 had no effects on these kinases/proteins associated with PI3K signaling.
as §1

[3] = Pharmacokinetic study in nude mice, oral; format: in vivo; conditions: mouse, one oral bolus 40 mg/kg, plasma
Procedure: To further characterize C98 in the treatment of MM, we determined its pharmacokinetic parameters. One bolus of 40 mg/kg of C98 was orally administrated, blood samples were then collected at the time points of 0.167, 0.5, 1, 2, 4, 6, 8, and 24 hr.
Prior to dose administration, nude mice (Shanghai Slac Laboratory Animal Co. Ltd., Shanghai, China) were fasted overnight with free access to water in the regular light-dark cycle. A group of 9 mice received an oral dose of C98 at 40 mg/kg. Blood samples were collected from three mice (n = 3) at each time points as follows: 0.167, 0.5, 1, 2, 4, 6, 8, and 24 hr. Blood samples (100 μL) were immediately mixed with 10 μL of EDTA and plasma was obtained by centrifugation at 1.3 × 10^4 rpm for 10 min. Samples were stored at –80°C for LC-MS/MS analysis. Plasma concentration versus time was analyzed using WinNolin software (version 6.2.1, Pharsight, USA) and the pharmacokinetic parameters maximum drug concentration (Cmax), time to reach maximum drug concentration (Tmax), half life (t1/2), area under the plasma level-time curve (AUC) were calculated.
Concentrations of C98 in plasma and in tumor tissues were analyzed by a LC-MS/MS method as described previously. Chromatographic separation was achieved using an Agela Venusil XBP C18 column (50 × 2.1 mm; […] particle size, Bonna-Agela Technologies, Tianjin, China). The column temperature was maintained at 40°C. Gradient elution at a flow rate of 0.3 mL/min was performed using the mobile phases: A, acetonitrile: water: formic acid (5: 95: 0.1, v: v: v) and B, acetonitrile: water: formic acid (95: 5: 0.1, v: v: v).
The mass spectrometer was operated in the negative ionization mode. The ion transitions for the multiple reaction monitored were: C98, 346.6 (M-H)→312.7; betamethasone (internal standard, IS), 391.1 (M-H)→ 361.4, with a dwell time of 100 ms per transition. After setting the collision energy and mass transition for C98 and the Internal standard, all other parameters were optimized for the best sensitivity. Data was processed by the Analyst 1.5.2 data collection and integration software (AB Sciex, Framingham, MA).
Supplementary Figure S5: The time-concentration profiles of C98 in plasma after oral administration. Nude mice were orally administrated C98 at a dose of 40 mg/kg. Blood species were then collected at a serial of time points (0, 0.167, 0.5, 1, 1.5, 2, 4, 6, 8, 24 hr) and subject to LC-MS/MS analysis after treatment as described in the Methods section. Resultant plasma concentration versus time data was analyzed using WinNolin software.
(also on this page, place not known: www.impactjournals.com/oncotarget/ Oncotarget, Materials 2014 Supplementary) […]

- MRT ([3]; read-out: mean residence time (MRT)): 4.48 h
- Cmax ([3]; read-out: median peak concentration (Cmax)): 367 ng/mL
- Tmax ([3]; read-out: time to maximal concentration (Tmax)): 30 min
- half-life ([3]; nude, po, 40 mg/kg, read-out: half-life (t1/2) (converted)): 122 min
Structure (SMILES): N#C/C(=C\C=C\c1ccc(-c2cc(Cl)ccc2Cl)o1)C(N)=S [C98]
- body weight of mice ([1]; OPM2 and JJN3 xenograft models, oral 40 or 80 mg/kg, 16 days): had no effects on body weight
- blood cell count, platelet count, hemoglobin measurement ([1]; mice treated with C98, end of the in vivo studies (data not shown)): no significant changes
- cleavage of caspase-3 and PARP (apoptosis) [2]: both caspase-3 and PARP were cleaved
- phosphorylation level of p38 (p38): failed to decrease
